Target: human α-thrombin (Homo sapiens, UniProt P00734)
Assay: Sub-library screen for active and permeable cyclic peptides (PAMPA plus thrombin inhibition)
Format: biochemical
Settings: crude, slopes normalized to DMSO; for Residual thrombin activity: Top sample: PAMPA acceptor well after 14 h, 5 μM donor; for Residual thrombin activity: Equilibrated sample: donor sample diluted to theoretical equilibrium (1 μM in assay)
Procedure: Linear dithiol peptides were synthesized in fritted 5-ml polypropylene syringes on a MultiPep RSi parallel peptide synthesizer (Intavis) by standard Fmoc-based solid-phase peptide synthesis on cysteamine 2-chlorotrityl resin (Sigma-Aldrich, 8.56000, 1.63 mmol g^−1 loading, 25 μmol scale) as described above with small changes. Amino acids (65 μmol, 2.6 eq.) were activated with HATU (63 μmol, 2.5 eq.) and NMM (145 μmol, 5.8 eq.) in 280 μl of DMF and 5 μl of NMP and let to react with the resin (25 μmol, 1 eq.) for 45 min. Couplings were performed twice for each amino acid. Resin was washed once with 800 μl of DMF, and unreacted amines were capped with 5% acetic anhydride and 6% 2,6-lutidine in 400 μl of DMF for 5 min. The resin was washed six times with 600 μl of DMF, and Fmoc protecting groups were removed by incubating the resin twice with 450 μl of a 20% piperidine solution in DMF for 5 min. The resin was washed six times with 600 μl of DMF before proceeding to the next coupling cycle. After completing the last coupling cycle, the resin was washed six times with […] of DCM. Peptide cleavage and ether precipitation were carried out as described above. After quantification with Ellman’s reagent, 1 μmol of each peptide was transferred in seven replicates to new Nunc 96-well DeepWell polypropylene plates and lyophilized. Peptides were cyclized as described above to afford 20 mM cyclic peptide stock solutions in DMSO containing 160 mM HEPES sodium salt. The amine on cyclic peptides was acylated with 5-chlorothiophene-2-carboxylic acid as follows. A 160 mM solution in 5-chlorothiophene-2-carboxylic acid was prepared in DMSO containing 160 mM HEPES sodium salt, and the acid was activated by mixing in equal volumes with a 160 mM HSTU solution in DMSO. Then, 10 μl of the activated carboxylic acid solutions and the cyclic peptide stocks were placed in Echo Qualified 384-well Low Dead Volume microplates (Labcyte), and 400 nl of cyclic peptide and 400 nl of HSTU-activated 5-chlorothiophene-2-carboxylic acid were transferred combinatorially to 384-well microplates (Greiner, 781076) using the Echo 650 acoustic liquid handler (Labcyte). Plates were centrifuged at 2,000 g for 2 min, and the reaction was allowed to proceed at room temperature for 8 h before addition of 39.2 μl of DMSO with a CERTUS FLEX liquid dispenser (Gyger). A volume of 25 μl of the resulting DMSO solutions was diluted with PBS buffer at pH 7.4 containing 5% DMSO in Nunc 96-well DeepWell polypropylene plates to afford 5 μM solutions of the acylated peptides.
The PAMPA plates were covered with a lid to avoid evaporation and incubated for 14 h at room temperature. Additionally, a diluted donor sample was prepared at the concentration representing theoretical maximum permeability (3 μM). Thereby, 30 μl of the donor sample before incubation was diluted with 20 μl of PBS buffer at pH 7.4 containing 5% DMSO. Volumes of 16 μl of each acceptor well and the diluted donor samples were transferred to a 384-well microplate (Greiner, 781076), and thrombin activity was measured as follows. Human α-thrombin (16 μl, 6 nM, Molecular Innovations) in assay buffer was dispensed into each well using a CERTUS FLEX liquid dispenser (Gyger), and plates were incubated at room temperature for 10 min. Then, 16 μl of a 150 μM fluorogenic thrombin substrate solution (Z-Gly-Gly-Arg-AMC, Bachem) in assay buffer containing 1% DMSO was added to each well, and thrombin inhibition was determined by measuring the fluorescent gain over time. Fluorescence intensity was measured on a Tecan Infinite M200 Pro microplate reader for 30 min at 25 °C with a fluorescent readout every 3 min (excitation: 360 nm, emission: 465 nm). Protease inhibition was calculated by comparing the enzymatic activity to a control without cyclic peptide.

SMILES | Residual thrombin activity: Top sample | Residual thrombin activity: Equilibrated sample
O=C1C[C@H]2CCCN2C(=O)[C@H](Cc2ccccc2)NC(=O)[C@@H](NC(=O)c2ccc(Cl)s2)CCCSCc2cccc(c2)CSCCN1 [C3-X5-L5] | 84.2 | 60.5
Cc1cccc(C[C@@H]2NC(=O)[C@@H](NC(=O)c3ccc(Cl)s3)CCCSCCS(=O)(=O)CCSCCNC(=O)C[C@H]3CCCN3C2=O)c1 [C3-X37-L2] | 92.4 | 51.6
O=C1CSCCC[C@H](NC(=O)c2ccc(Cl)s2)C(=O)N[C@@H](Cc2ccc(C(F)(F)F)cc2)C(=O)N2CCC[C@@H]2CC(=O)NCCSC1 [C3-X36-L7] | 101.7 | 101.7
COc1ccc(C[C@@H]2NC(=O)[C@@H](NC(=O)c3ccc(Cl)s3)CSCc3ccccc3CSCCNC(=O)C[C@H]3CCCN3C2=O)cc1 [C1-X33-L6] | 89.9 | 95.4
O=C1C[C@H]2CCCN2C(=O)[C@H](Cc2ccc(C(F)(F)F)cc2)NC(=O)[C@@H](NC(=O)c2ccc(Cl)s2)CCSCCS(=O)(=O)CCSCCN1 [C2-X36-L2] | 101.5 | 101.8
Cc1cccc(C[C@@H]2NC(=O)[C@@H](NC(=O)c3ccc(Cl)s3)CCCSCc3ccc(cc3)CSCCNC(=O)C[C@H]3CCCN3C2=O)c1 [C3-X37-L3] | 90.5 | 68.7
O=C1C[C@H]2CCCN2C(=O)[C@H](Cc2ccccc2)NC(=O)[C@@H](NC(=O)c2ccc(Cl)s2)CSCc2ccc(cc2)CSCCN1 [C1-X5-L3] | 88.7 | 68.9
N#Cc1ccc(C[C@@H]2NC(=O)[C@@H](NC(=O)c3ccc(Cl)s3)CSCc3ccccc3CSCCNC(=O)C[C@H]3CCCN3C2=O)cc1 [C1-X35-L6] | 90.5 | 92.5
O=C1C[C@H]2CCCN2C(=O)[C@H](Cc2ccc(C(F)(F)F)cc2)NC(=O)[C@@H](NC(=O)c2ccc(Cl)s2)CCCSCc2ccc(cc2)CSCCN1 [C3-X36-L3] | 101.9 | 98.7
N#Cc1ccc(C[C@@H]2NC(=O)[C@@H](NC(=O)c3ccc(Cl)s3)CCSCC(=O)CSCCNC(=O)C[C@H]3CCCN3C2=O)cc1 [C2-X35-L7] | 103.0 | 104.7
N#Cc1ccc(C[C@@H]2NC(=O)[C@@H](NC(=O)c3ccc(Cl)s3)CCCSCCS(=O)(=O)CCSCCNC(=O)C[C@H]3CCCN3C2=O)cc1 [C3-X35-L2] | 106.0 | 96.7
CN1C(=O)[C@@H](NC(=O)c2ccc(Cl)s2)CSCc2ccc(cc2)CSCCNC(=O)C[C@H]2CCCN2C(=O)[C@@H]1Cc1ccccc1 [C1-X32-L3] | 91.1 | 94.0
N#Cc1ccc(C[C@@H]2NC(=O)[C@@H](NC(=O)c3ccc(Cl)s3)CCSCc3ccccc3CSCCNC(=O)C[C@H]3CCCN3C2=O)cc1 [C2-X35-L6] | 90.0 | 91.7
Cc1cccc(C[C@@H]2NC(=O)[C@@H](NC(=O)c3ccc(Cl)s3)CSC/C=C/CSCCNC(=O)C[C@H]3CCCN3C2=O)c1 [C1-X37-L4] | 87.8 | 60.4
CN1C(=O)[C@@H](NC(=O)c2ccc(Cl)s2)CCCSCc2cccc(n2)CSCCNC(=O)C[C@H]2CCCN2C(=O)[C@@H]1Cc1ccccc1 [C3-X32-L1] | 99.5 | 98.5
O=C1CSCCNC(=O)C[C@H]2CCCN2C(=O)[C@H](Cc2ccc(Cl)cc2)NC(=O)[C@@H](NC(=O)c2ccc(Cl)s2)CCSC1 [C2-X34-L7] | 104.6 | 101.4

SMILES | Residual thrombin activity: Top sample | Residual thrombin activity: Equilibrated sample
COc1ccc(C[C@@H]2NC(=O)[C@@H](NC(=O)c3ccc(Cl)s3)CSCCS(=O)(=O)CCSCCNC(=O)C[C@H]3CCCN3C2=O)cc1 [C1-X33-L2] | 98.0 | 99.8
CN1C(=O)[C@@H](NC(=O)c2ccc(Cl)s2)CCSC/C=C/CSCCNC(=O)C[C@H]2CCCN2C(=O)[C@@H]1Cc1ccccc1 [C2-X32-L4] | 99.0 | 101.4
O=C1C[C@H]2CCCN2C(=O)[C@H](Cc2ccc(Cl)cc2)NC(=O)[C@@H](NC(=O)c2ccc(Cl)s2)CCCSCc2ccccc2CSCCN1 [C3-X34-L6] | 94.7 | 78.6
O=C1C[C@H]2CCCN2C(=O)[C@H](Cc2ccc(C(F)(F)F)cc2)NC(=O)[C@@H](NC(=O)c2ccc(Cl)s2)CCCSC/C=C/CSCCN1 [C3-X36-L4] | 103.6 | 102.0
COc1ccc(C[C@@H]2NC(=O)[C@@H](NC(=O)c3ccc(Cl)s3)CCCSCCS(=O)(=O)CCSCCNC(=O)C[C@H]3CCCN3C2=O)cc1 [C3-X33-L2] | 105.7 | 97.1
O=C1CSCCNC(=O)C[C@H]2CCCN2C(=O)[C@H](Cc2ccc(Cl)cc2)NC(=O)[C@@H](NC(=O)c2ccc(Cl)s2)CSC1 [C1-X34-L7] | 100.2 | 98.8
O=C1C[C@H]2CCCN2C(=O)[C@H](Cc2ccc(C(F)(F)F)cc2)NC(=O)[C@@H](NC(=O)c2ccc(Cl)s2)CCSC/C=C/CSCCN1 [C2-X36-L4] | 103.3 | 101.3
COc1ccc(C[C@@H]2NC(=O)[C@@H](NC(=O)c3ccc(Cl)s3)CCSCc3cccc(c3)CSCCNC(=O)C[C@H]3CCCN3C2=O)cc1 [C2-X33-L5] | 104.9 | 49.9
Cc1cccc(C[C@@H]2NC(=O)[C@@H](NC(=O)c3ccc(Cl)s3)CSCc3ccc(cc3)CSCCNC(=O)C[C@H]3CCCN3C2=O)c1 [C1-X37-L3] | 95.4 | 90.2
O=C1C[C@H]2CCCN2C(=O)[C@H](Cc2ccc(Cl)cc2)NC(=O)[C@@H](NC(=O)c2ccc(Cl)s2)CCSCCS(=O)(=O)CCSCCN1 [C2-X34-L2] | 99.3 | 99.5
O=C1C[C@H]2CCCN2C(=O)[C@H](Cc2ccccc2)NC(=O)[C@@H](NC(=O)c2ccc(Cl)s2)CCCSC/C=C/CSCCN1 [C3-X5-L4] | 55.8 | 36.8
CN1C(=O)[C@@H](NC(=O)c2ccc(Cl)s2)CCSCc2ccc(cc2)CSCCNC(=O)C[C@H]2CCCN2C(=O)[C@@H]1Cc1ccccc1 [C2-X32-L3] | 97.8 | 96.9
N#Cc1ccc(C[C@@H]2NC(=O)[C@@H](NC(=O)c3ccc(Cl)s3)CSCC(=O)CSCCNC(=O)C[C@H]3CCCN3C2=O)cc1 [C1-X35-L7] | 96.3 | 100.4
N#Cc1ccc(C[C@@H]2NC(=O)[C@@H](NC(=O)c3ccc(Cl)s3)CCCSCc3cccc(n3)CSCCNC(=O)C[C@H]3CCCN3C2=O)cc1 [C3-X35-L1] | 93.2 | 95.8
N#Cc1ccc(C[C@@H]2NC(=O)[C@@H](NC(=O)c3ccc(Cl)s3)CCCSCc3ccccc3CSCCNC(=O)C[C@H]3CCCN3C2=O)cc1 [C3-X35-L6] | 96.5 | 93.5

— PMC11062899, “De novo development of small cyclic peptides that are orally bioavailable” (Nature Chemical Biology, 2023)
